Measurements as given in patent US20230044787A1, “TRICYCLE DIHYDROIMIDAZOPYRIMIDONE DERIVATIVE, PREPARATION METHOD THEREOF, PHARMACEUTICAL COMPOSITION AND USE THEREOF” (priority 2019, published 2023).

The molecules below were run against T1, Lp-PLA2 (Homo sapiens, UniProt Q13093) (assay: Lipoprotein-associated phospholipase A2 (Lp-PLA2) human plasma assay (Thio-PAF assay)). Conditions: Comparison of activity data (I); pooled human plasma, 2-thio-PAF substrate, 30-min pre-incubation.
T1 construct: aliquoted and thawed 40 μL of pooled human plasma was previously added; from tissue; host or cells: pooled human plasma
T1 sequence (Q13093 22-441): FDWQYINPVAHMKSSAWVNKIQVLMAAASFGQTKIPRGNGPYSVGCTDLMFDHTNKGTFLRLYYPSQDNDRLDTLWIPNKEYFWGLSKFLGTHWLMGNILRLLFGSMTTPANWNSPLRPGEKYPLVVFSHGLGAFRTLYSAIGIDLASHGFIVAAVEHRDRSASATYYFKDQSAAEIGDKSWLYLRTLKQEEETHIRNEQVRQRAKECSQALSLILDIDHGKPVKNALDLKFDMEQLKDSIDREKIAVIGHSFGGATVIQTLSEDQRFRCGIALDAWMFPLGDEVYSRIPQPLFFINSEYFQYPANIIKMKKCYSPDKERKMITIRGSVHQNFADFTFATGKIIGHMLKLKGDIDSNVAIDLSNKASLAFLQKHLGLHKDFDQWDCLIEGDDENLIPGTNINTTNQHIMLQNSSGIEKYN
Assay type: biochemical
Experimental: Lipoprotein-Associated Phospholipase A2 (Lp-PLA2) Human Plasma Assay
The amount of sulfhydryl groups is continuously determined by the reaction with CPM (7-diethylamino-3-(4′-maleimidophenyl)-4-methylcoumarin), and the CPM is a maleimide of which fluorescence increases after Michael addition of sulfhydryl group. This assay can detect Lp-PLA2 activity in human plasma, as determined by specific inhibition of Lp-PLA2 inhibitors.
Thio-PAF assay was performed as quenched 75 μL assay. Compound source plate was prepared for each compound by preparing 1:3 (by volume) serial dilutions in pure DMSO in a 96-well microplate. The compound on the source plate was diluted 20-fold by transferring 3 μL of the compound from the compound source plate into a 96-well microplate pre-added with 57 μL of assay buffer by Rainin multichannel pipette. The assay buffer described above consisted of 50 mM HEPES, pH 7.4, 150 mM NaCl, 1 mM CHAPS. 1 μL of the 20-fold diluted compound was transferred by Rainin multichannel pipette into a 96-well Greiner 655076 (black) microplate to which aliquoted and thawed 40 μL of pooled human plasma was previously added. The plate was shaken for 20 seconds on a microplate shaker to mix well. After a 30-min pre-incubation at room temperature, 10 μL of substrate solution was added to the 96-well Greiner 655076 (black) microplate by Rainin multichannel pipette, in which the substrate solution contained 2.5 mM 2-thio-PAF [from ethanol stock], 32 μM CPM [from DMSO stock], and 3.2 mM NEM (N-ethylmaleimide) [freshly prepared in DMSO per experiment] in assay buffer consisting of 50 mM HEPES, pH 7.4; 150 mM NaCl; 1 mM CHAPS. After 2 min, the reaction was quenched with […] of 5% trifluoroacetic acid (TFA) in water. The plate was centrifuged at 2000 rpm for 1 minute. The plate was read at ex:380/em:485 using a Biotek Synergy H1 (H1MF) microplate reader. IC50 data, curves and QC analysis were performed using GraphPad Prism 6.0 and Excel.

`O=c1nc(OCc2cc(F)c(F)c(F)c2)cc2n1C[C@@H]1COCCN21` [Example 123 in WO2016011930A1, reference compound] showed an IC50 of 75.3 nM.

Same assay, conditions: Lp-PLA2 human plasma assay (Thio-PAF), pooled human plasma, 30-min pre-incubation at room temperature

In order of falling IC50:
1. CC12CCCCN1c1cc(OCc3ccc(Oc4ccc(F)c(C(F)(F)F)c4)nc3)nc(=O)n1C2 (centres unmarked) [Example 69, 3-((6-(4-fluoro-3-(trifluoromethyl)phenoxy)pyridin-3-yl)methoxy)-9a-methyl-6,7,8,9,9a,10-hexahydro-1H-pyrido[1,2′:3,4]imidazo [1,2-c]pyrimidin-1-one]  325 nM
2. CC12CCCN1c1cc(OCc3ccc(Oc4ccc(F)c(C(F)(F)F)c4)nc3)nc(=O)n1C2 (centres unmarked) [Example 58, 3-((6-(4-fluoro-3-(trifluoromethyl)phenoxy)pyridin-3-yl)methoxy)-8a-methyl-7,8,8a,9-tetrahydro-1H,6H-pyrrolo[1′,2′:3,4]imidazo [1,2-c]pyrimidin-1-one]  204 nM
3. COc1c(NCc2ccc(F)c(F)c2)nc(=O)n2c1N1C[C@@H]3C[C@]1(CO3)C2 [Example 175, (3S,11aR)-7-((3,4-Difluorobenzyl)amino)-6-methoxy-3,4-dihydro-1H,9H,11H-3,11a-methanopyrimido[6′, 1′:2, 3]imidazo[5,1-c] [1, 4]oxazin-9-one]  168 nM
4. O=c1nc(OCc2ccc(Oc3ccc(F)c(C(F)(F)F)c3)nc2)cc2n1C[C@@]13CO[C@@H](CN21)C3 [Example 32, (3R,11aS)-7-((6-(4-fluoro-3-(trifluoromethyl)phenoxy)pyridin-3-yl)methoxy)-3,4-dihydro-1H,9H,11H-3,11a-methanopyrimido[6′,1′:2,3] imidazo[5,1-c][1,4]oxazin-9-one]  164 nM
5. O=c1nc(OCc2cc(F)c(F)c(F)c2)cc2n1C[C@@]13CO[C@@H](CN21)C3 [Example 35, (3R,11aS)-7-((3,4,5-trifluorobenzyl)oxy)-3,4-dihydro-1H,9H,11H-3,11a-methanopyrimido[6′,1′:2,3] imidazo[5,1-c][1,4]oxazin-9-one]  38.8 nM
6. O=c1nc(OCCc2ccc(Oc3cccc(C(F)(F)F)c3)cc2)cc2n1CC13CC(CN21)C3 [Example 133, 3-(4-(3-(trifluoromethyl)phenoxy)phenethoxy)-7,8-dihydro-1H,6H,9H-7,8a-methanopyrrolo[1′,2′:3,4] imidazo[1,2-c]pyrimidin-1-one]  36.6 nM
7. O=c1nc(OCc2ccc(F)c(F)c2)cc2n1CC13CC(CN21)C3 [Example 97, 3-((3,4-difluorobenzyl)oxy)-7,8-dihydro-1H,6H,9H-7,8a-methanopyrrolo[1′,2′:3,4] imidazo[1,2-c]pyrimidin-1-one]  14.2 nM
8. O=c1nc(OCc2cc(F)c(Oc3ccnc(C(F)F)c3)c(F)c2)cc2n1CC13CC(CN21)C3 [Example 176, 3-((4-((2-(difluoromethyl)pyridin-4-yl)oxy)-3,5-difluorobenzyl)oxy)-7,8-dihydro-1H,6H, 9H-7,8a-methanopyrrolo[1′,2′:3,4]imidazo [1,2-c]pyrimidin-1-one]  13.9 nM
9. COc1c(OCCc2cc(F)c(Oc3ccnc(C(F)(F)F)c3)c(F)c2)nc(=O)n2c1N1CC3CC1(C3)C2 [Example 189, 3-(3,5-difluoro-4-((2-(trifluoromethyl)pyridin-4-yl)oxy)phenethoxy)-4-methoxy-7,8-dihydro-1H,6H,9H-7,8a-methanopyrrolo[1′,2′:3,4] imidazo[1,2-c] pyrimidin-1-one]  8.6 nM
10. O=c1nc(OCc2ccc(Oc3cnc(C(F)(F)F)nc3)c(F)c2)cc2n1CC13CCC(CC1)N23 [Example 128, 3-((3-fluoro-4-((2-(trifluoromethyl)pyrimidin-5-yl)oxy)benzyl)oxy)-7,8-dihydro-1H,6H,9H-6,8a-ethanopyrrolo[1′,2′:3,4] imidazo[1,2-c]pyrimidin-1-one]  8.4 nM
11. COc1c(OCCc2ccc(Oc3ccc(Cl)c(C(F)(F)F)c3)c(F)c2)nc(=O)n2c1N1CC3CC1(C3)C2 [Example 187, 3-(4-(4-chloro-3-(trifluoromethyl)phenoxy)-3-fluorophenethoxy)-4-methoxy-7,8-dihydro-1H,6H,9H-7,8a-methanopyrrolo[1′,2′:3,4] imidazo[1,2-c]pyrimidin-1-one]  7.8 nM
12. Cc1cc(Oc2c(F)cc(COc3cc4n(c(=O)n3)C[C@]35CO[C@H](CN43)C5)cc2F)ccn1 [Example 10, (3S,11aR)-7-((3,5-difluoro-4-((2-methyl-pyridin-4-yl)oxy)benzyl)oxy)-3,4-dihydro-1H,9H,11H-3,11a-methanopyrimido[6′,1′:2,3] imidazo[5,1-c][1,4]oxazin-9-one]  6.7 nM
13. O=c1nc(OCCc2ccc(Oc3cccc(C(F)(F)F)c3)c(F)c2)cc2n1C[C@]13CO[C@H](CN21)C3 [Example 181, (3S,11aR)-7-(3-fluoro-4-(3-(trifluoromethyl)phenoxy)phenethoxy)-3,4-dihydro-1H,9H, 11H-3,11a-methanopyrimido[6′,1′:2,3]imidazo [5,1-c][1,4]oxazin-9-one]  6.7 nM
14. O=c1nc(OCc2ccc(Oc3ccnc(C(F)F)c3)c(F)c2)cc2n1CC13CC(CN21)C3 [Example 162]  6.5 nM
15. O=c1nc(OCc2ccc(Oc3ccnc(C(F)(F)F)c3)c(F)c2)cc2n1CC13CC(CN4CCOCC4)(CN21)C3 [Example 166, 3-((3-fluoro-4-((2-(trifluoromethyl)pyridin-4-yl)oxy)benzyl)oxy)-7-(morpholinomethyl)-7,8-dihydro-1H,6H,9H-7,8a-methanopyrrolo[1′,2′:3,4] imidazo[1,2-c]pyrimidin-1-one]  5.8 nM
16. O=c1nc(OCc2cc(F)c(Oc3ccnc(Cl)c3)c(F)c2)cc2n1C[C@]13CO[C@H](CN21)C3 [Example 6, (3S,11aR)-7-((4-((2-chloropyridin-4-yl)oxy)-3,5-difluorobenzyl)oxy)-3,4-dihydro-1H,9H,11H-3,11a-methanopyrimido[6′,1′:2,3] imidazo[5,1-c][1,4]oxazin-9-one]  4.9 nM
17. N#Cc1cc(Oc2ccc(COc3nc(=O)n4c(c3F)N3C[C@@H]5C[C@]3(CO5)C4)cc2F)cc(C(F)(F)F)c1 [Example 90]  4.8 nM
18. O=c1nc(OCc2cc(F)c(Oc3ccnc(C(F)(F)F)c3)c(F)c2)cc2n1C[C@]13CC[C@H](CN21)C3 [Example 123]  4.4 nM
19. O=c1nc(OCc2cc(F)c(Oc3cccc(OC(F)(F)F)c3)c(F)c2)cc2n1C[C@]13CO[C@H](CN21)C3 [Example 145, (3S,11aR)-7-((3,5-difluoro-4-(3-(trifluoromethoxy)phenoxy)benzyl)oxy)-3,4-dihydro-1H,9H,11H-3,11a-methanopyrimido[6′,1′:2,3] imidazo[5,1-c][1,4]oxazin-9-one]  4.3 nM
20. O=c1nc(OCc2ccc(Oc3ccnc(Cl)c3)c(F)c2)cc2n1CC13CC(CN21)C3 [Example 155]  3.7 nM
21. COc1c(OCc2ccc(F)c(C#N)c2)nc(=O)n2c1N1C[C@@H]3C[C@]1(CO3)C2 [Example 142]  3.6 nM
22. CC12CCCN1c1cc(OCCc3ccc(Oc4ccc(Cl)c(C(F)(F)F)c4)cc3)nc(=O)n1C2 (centres unmarked) [Example 61, 3-(4-(4-chloro-3-(trifluoromethyl)phenoxy)phenethoxy)-8a-methyl-7,8,8a,9-tetrahydro-1H,6H-pyrrolo[1′,2′:3,4]imidazo [1,2-c]pyrimidin-1-one]  3.4 nM
23. O=c1nc(OCc2ccc(Oc3ccc(Cl)c(C(F)(F)F)c3)c(F)c2)cc2n1CC13CCC(CC1)N23 [Example 127, 3-((3-fluoro-4-(4-chloro-3-(trifluoromethyl)phenoxy)benzyl)oxy)-7,8-dihydro-1H,6H,9H-6,8a-ethanopyrrolo[1′,2′:3,4] imidazo[1,2-c]pyrimidin-1-one]  2.6 nM
24. O=c1nc(OCc2cc(F)c(Oc3ccc(Cl)c(C(F)(F)F)c3)c(F)c2)cc2n1C[C@@]13CO[C@@H](CN21)C3 [Example 27, (3R,11aS)-7-((4-(4-chloro-3-(trifluoromethyl)phenoxy)-3,5-difluorobenzyl)oxy)-3,4-dihydro-1H,9H,11H-3,11a-methanopyrimido[6′,1′:2,3] imidazo[5,1-c][1,4]oxazin-9-one]  2.5 nM
25. O=c1nc(OCc2ccc(Oc3ccnc(C(F)(F)F)c3)c(F)c2)cc2n1C[C@@]13C[C@@H](CN21)N(C1COC1)C3 [Example 172]  2.2 nM
